Earlier results, collected in patent US12274713B2, “Nutraceutical composition comprising a water-soluble fullerene and a ketone” (priority 2021, dated 2025).

System: tumor growth and metastasis
Conditions: Prylutska et al.

c12c3c4c5c1c1c6c7c2c2c8c3c3c9c4c4c%10c5c5c1c1c6c6c%11c7c2c2c7c8c3c3c8c9c4c4c9c%10c5c5c1c1c6c6c%11c2c2c7c3c3c8c4c4c9c5c1c1c6c2c3c41 [60-carbon fullerene, Buckminsterfullerene]
tumor growth and metastasis: inhibit tumor growth and metastasis
